One block for each molecule: values may come before it.
Experiments:
[1] = Dissociation of chelates in aq. 1.0M HCl at 80° C. (acid decomplexation kinetic inertness) (Chart 18); format: physicochemical
[2] = Dissociation of chelates in aq. 0.1M HCl at 80° C. (acid decomplexation kinetic inertness) (Chart 19); format: physicochemical
[3] = Dissociation of chelates in aq. 6.0M HCl at 80° C. (acid decomplexation kinetic inertness) (Chart 17); format: physicochemical
[4] = Dissociation of chelates in aq. 0.1M HCl at RT (acid decomplexation kinetic inertness) (Chart 20); format: physicochemical
[5] = Alkali metal dependent formation of 1,5-cz-Lig and 1,4-cz-Lig isomers from Lig at pH 10.2 (Chart 14); format: physicochemical; conditions: B: 1 day at 80° C., Borate/(M^I)2CO3 buffer pH 10.2; for conversion to 1,4-cz-Lig isomer, Li^I / conversion to 1,5-cz-Lig isomer, Li^I: visible analyte free precipitate
[6] = Formation of 1,5-cz-[M(Lig)] from Lig and M^III ions (metal dependent click-zip) (Charts 4, 5); format: physicochemical; conditions: MOPS/NaOH buffer pH 7.0, TD728, TD827 in 50% i-PrOH; for conversion to 1,5-cz-[M(Lig)], Y^III: TD714 sum of two diastereoisomers
[7] = Formation of 1,5-cz-[Ln(Lig)] from Lig and Ln^III ions (metal dependent click-zip), MOPS/NaOH buffer pH 7.0, analytical HPLC (Charts 1, 2); conditions: MOPS/NaOH buffer pH 7.0

- fraction of intact chelate ([1]; 1 month): 100%
- fraction of intact chelate ([1]; 1 week): 100%
- fraction of intact chelate ([1]; 1 hour): 100%
- fraction of intact chelate ([1]; 1 day): 100%
- fraction of intact chelate ([2]; 1 month): 100%
- fraction of intact chelate ([2]; 1 week): 100%
- fraction of intact chelate ([2]; 1 hour): 100%
- fraction of intact chelate ([2]; 1 day): 100%
- fraction of intact chelate ([3]; 1 month): 98%
- fraction of intact chelate ([3]; 1 week): 99%
- fraction of intact chelate ([3]; 1 hour): 100%
- fraction of intact chelate ([3]; 1 day): 100%
- fraction of intact chelate ([4]; 1 month): 100%
- fraction of intact chelate ([4]; 1 week): 100%
- fraction of intact chelate ([4]; 1 hour): 100%
- fraction of intact chelate ([4]; 1 day): 100%
Structure (SMILES): O=C1C[N@@]2CC[N@]3CC[N@@](CC[N@](CC2)Cc2cccc(n2)-c2cnnn2Cc2cc(-c4ccccc4)cc(n2)C3)CC(=O)[O][Lu][O]1 [TD522]

- conversion to 1,4-cz-Lig isomer, Cs^I [5]: 31%
- conversion to 1,4-cz-Lig isomer, K^I [5]: 32%
- conversion to 1,4-cz-Lig isomer, Na^I [5]: 26%
- conversion to 1,4-cz-Lig isomer, Rb^I [5]: 32%
- conversion to 1,5-cz-Lig isomer, Cs^I [5]: 6%
- conversion to 1,5-cz-Lig isomer, K^I [5]: 7%
- conversion to 1,5-cz-Lig isomer, Na^I [5]: 25%
- conversion to 1,5-cz-Lig isomer, Rb^I [5]: 7%
- conversion to 1,4-cz-Lig isomer, Li^I [5]: 19%
- conversion to 1,5-cz-Lig isomer, Li^I [5]: 10%
Structure (SMILES): C#Cc1cccc(CN2CCN(CP(=O)(O)O)CCN(Cc3cccc(CN=[N+]=[N-])n3)CCN(CP(=O)(O)O)CC2)n1 [TD581]

Structure (SMILES): C#Cc1cccc(CN2CCN(CP(=O)(O)OCC)CCN(Cc3cccc(CN=[N+]=[N-])n3)CCN(CP(=O)(O)OCC)CC2)n1 [TD582]
- conversion to 1,5-cz-[M(Lig)], Sc^III ([6]; 1 week at 80° C.): 0%
- conversion to 1,5-cz-[M(Lig)], Y^III ([6]; 1 week at 80° C.): 68%
- conversion to 1,5-cz-[M(Lig)], Sc^III ([6]; 1 hour at 80° C.): 0%
- conversion to 1,5-cz-[M(Lig)], Y^III ([6]; 1 hour at 80° C.): 11%
- conversion to 1,4-cz-Lig isomer, Cs^I [5]: 26%
- conversion to 1,4-cz-Lig isomer, K^I [5]: 25%
- conversion to 1,4-cz-Lig isomer, Na^I [5]: 2%
- conversion to 1,4-cz-Lig isomer, Rb^I [5]: 25%
- conversion to 1,5-cz-Lig isomer, Cs^I [5]: 10%
- conversion to 1,5-cz-Lig isomer, K^I [5]: 11%
- conversion to 1,5-cz-Lig isomer, Na^I [5]: 69%
- conversion to 1,5-cz-Lig isomer, Rb^I [5]: 10%
- conversion to 1,4-cz-Lig isomer, Li^I [5]: 3%
- conversion to 1,5-cz-Lig isomer, Li^I [5]: 53%
- conversion to 1,5-cz-[Ln(Lig)], Ce^III ([7]; after 1 week at 80° C.): 0%
- conversion to 1,5-cz-[Ln(Lig)], Ce^III ([7]; after 1 hour at 80° C.): 0%
- conversion to 1,5-cz-[Ln(Lig)], Dy^III ([7]; after 1 week at 80° C.): 85%
- conversion to 1,5-cz-[Ln(Lig)], Dy^III ([7]; after 1 hour at 80° C.): 18%
- conversion to 1,5-cz-[Ln(Lig)], Er^III ([7]; after 1 week at 80° C.): 74%
- conversion to 1,5-cz-[Ln(Lig)], Er^III ([7]; after 1 hour at 80° C.): 15%
- conversion to 1,5-cz-[Ln(Lig)], Eu^III ([7]; after 1 week at 80° C.): 87%
- conversion to 1,5-cz-[Ln(Lig)], Eu^III ([7]; after 1 hour at 80° C.): 14%
- conversion to 1,5-cz-[Ln(Lig)], Gd^III ([7]; after 1 week at 80° C.): 86%
- conversion to 1,5-cz-[Ln(Lig)], Gd^III ([7]; after 1 hour at 80° C.): 15%
- conversion to 1,5-cz-[Ln(Lig)], Ho^III ([7]; after 1 week at 80° C.): 79%
- conversion to 1,5-cz-[Ln(Lig)], Ho^III ([7]; after 1 hour at 80° C.): 16%
- conversion to 1,5-cz-[Ln(Lig)], La^III ([7]; after 1 week at 80° C.): 0%
- conversion to 1,5-cz-[Ln(Lig)], La^III ([7]; after 1 hour at 80° C.): 0%
- conversion to 1,5-cz-[Ln(Lig)], Lu^III ([7]; after 1 week at 80° C.): 26%
- conversion to 1,5-cz-[Ln(Lig)], Lu^III ([7]; after 1 hour at 80° C.): 5%
- conversion to 1,5-cz-[Ln(Lig)], Nd^III ([7]; after 1 week at 80° C.): 60%
- conversion to 1,5-cz-[Ln(Lig)], Nd^III ([7]; after 1 hour at 80° C.): 6%
- conversion to 1,5-cz-[Ln(Lig)], Pr^III ([7]; after 1 week at 80° C.): 17%
- conversion to 1,5-cz-[Ln(Lig)], Pr^III ([7]; after 1 hour at 80° C.): 5%
- conversion to 1,5-cz-[Ln(Lig)], Sm^III ([7]; after 1 week at 80° C.): 86%
- conversion to 1,5-cz-[Ln(Lig)], Sm^III ([7]; after 1 hour at 80° C.): 12%
- conversion to 1,5-cz-[Ln(Lig)], Tb^III ([7]; after 1 week at 80° C.): 82%
- conversion to 1,5-cz-[Ln(Lig)], Tb^III ([7]; after 1 hour at 80° C.): 18%
- conversion to 1,5-cz-[Ln(Lig)], Tm^III ([7]; after 1 week at 80° C.): 68%
- conversion to 1,5-cz-[Ln(Lig)], Tm^III ([7]; after 1 hour at 80° C.): 14%
- conversion to 1,5-cz-[Ln(Lig)], Yb^III ([7]; after 1 week at 80° C.): 59%
- conversion to 1,5-cz-[Ln(Lig)], Yb^III ([7]; after 1 hour at 80° C.): 12%

- fraction of intact chelate ([1]; 1 month): 0%
- fraction of intact chelate ([1]; 1 week): 0%
- fraction of intact chelate ([1]; 1 hour): 92%
- fraction of intact chelate ([1]; 1 day): 10%
- fraction of intact chelate ([2]; 1 month): 21%
- fraction of intact chelate ([2]; 1 week): 83%
- fraction of intact chelate ([2]; 1 hour): 100%
- fraction of intact chelate ([2]; 1 day): 97%
- fraction of intact chelate ([3]; 1 month): 0%
- fraction of intact chelate ([3]; 1 week): 0%
- fraction of intact chelate ([3]; 1 hour): 0%
- fraction of intact chelate ([3]; 1 day): 0%
- fraction of intact chelate ([4]; 1 month): 100%
- fraction of intact chelate ([4]; 1 week): 100%
- fraction of intact chelate ([4]; 1 hour): 100%
- fraction of intact chelate ([4]; 1 day): 100%
Structure (SMILES): O=C1C[N@@]2CC[N@]3CC[N@@](CC[N@](CC2)Cc2cccc(n2)-c2cnnn2Cc2cc(-c4ccccc4)cc(n2)C3)CC(=O)[O][Eu][O]1 [TD599]

- fraction of intact chelate ([1]; 1 month): 23%
- fraction of intact chelate ([1]; 1 week): 78%
- fraction of intact chelate ([1]; 1 hour): 99%
- fraction of intact chelate ([1]; 1 day): 96%
- fraction of intact chelate ([2]; 1 month): 99%
- fraction of intact chelate ([2]; 1 week): 99%
- fraction of intact chelate ([2]; 1 hour): 100%
- fraction of intact chelate ([2]; 1 day): 100%
- fraction of intact chelate ([3]; 1 month): 0%
- fraction of intact chelate ([3]; 1 week): 0%
- fraction of intact chelate ([3]; 1 hour): 72%
- fraction of intact chelate ([3]; 1 day): 0%
- fraction of intact chelate ([4]; 1 month): 100%
- fraction of intact chelate ([4]; 1 week): 100%
- fraction of intact chelate ([4]; 1 hour): 100%
- fraction of intact chelate ([4]; 1 day): 100%
Structure (SMILES): O=C1C[N@@]2CC[N@]3CC[N@@](CC[N@](CC2)Cc2cccc(n2)-c2cnnn2Cc2cc(-c4ccccc4)cc(n2)C3)CC(=O)[O][Tb][O]1 [TD600]
